Measured values from publication PMC6428247, “Potent inhibitors of equine steroid isomerase EcaGST A3-3” (PLoS ONE, 2019).
Values joined by “and” are separate entries in the source; they are usually repeats but may differ in a detail not shown here. Identical values can stand only once. Like-named read-outs stand apart in the source and are kept apart here.

T1: HsaGST A3-3 (Homo sapiens, UniProt Q16772)
T1 construct: made in house
T1 sequence (Q16772 1-222): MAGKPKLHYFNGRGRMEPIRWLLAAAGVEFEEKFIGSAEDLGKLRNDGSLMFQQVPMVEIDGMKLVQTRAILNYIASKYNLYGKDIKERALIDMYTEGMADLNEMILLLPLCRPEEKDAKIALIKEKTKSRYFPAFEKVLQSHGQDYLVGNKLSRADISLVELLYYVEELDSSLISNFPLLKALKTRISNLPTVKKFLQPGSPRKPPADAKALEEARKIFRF

T2: HsaGST M2-2 (Homo sapiens, UniProt P28161)
T2 construct: made in house
T2 sequence (P28161 1-218): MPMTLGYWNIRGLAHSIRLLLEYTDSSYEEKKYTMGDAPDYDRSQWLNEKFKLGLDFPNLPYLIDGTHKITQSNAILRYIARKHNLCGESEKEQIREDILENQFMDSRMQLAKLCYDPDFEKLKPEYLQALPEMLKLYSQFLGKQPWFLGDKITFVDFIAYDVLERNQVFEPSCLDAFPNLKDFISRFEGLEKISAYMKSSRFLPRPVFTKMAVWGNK


Tests used:
EcaGST A3-3 [1] = target: T3, EcaGST A3-3 (Equus caballus, UniProt M9ZT87); assay: Inhibition of EcaGST A3-3 activity, GSH conjugation with CDNB; type: biochemical, Equus ferus caballus; conditions: for Inhibition (%) of EcaGST A3-3: 10 μM inhibitor, sodium phosphate pH 6.5, 30°C; for inhibition at 10 µM: pH 6.5, read-out: Inhibition (%) of EcaGST A3-3, 10 μM inhibitor, 1 mM GSH, 1 mM CDNB, sodium phosphate pH 6.5, 30°C
Protocol: The final solvent concentration in the reaction system was kept at 5% (v/v) as a maximum.
(§1) The conjugation of GSH with the electrophilic substrate CDNB was used as a biochemical assay for general activity measurements. Screening of the US Drug library for inhibition was done in triplicates in 96-well plates in a Thermo Scientific Multiskan GO spectrophotometer. The conjugation activity at 30°C was monitored at 340 nm for 1 min in 0.1 M sodium phosphate buffer at pH 6.5 and 10 μM inhibitor concentration in a final volume of 300 μL. Initial concentrations of GSH and CDNB were 1 mM.
Assay conditions for inhibition measurements of enzyme activity with CDNB were the following: EcaGST A3-3 15 nM, initial concentrations of GSH and CDNB 1 mM, inhibitor concentrations varying from 0.029 μM to 15 μM, in 100 mM Na2HPO4/NaH2PO4 at pH 6.5.
The reactions were followed spectrophotometrically for 1 min at 30°C using a Shimadzu UV-2501 PC spectrophotometer (Shimadzu Inc.). All experiments included triplicate measurements in each data point.
The equation for competitive inhibition fitted by non-linear regression was v=Vmax[S]/KM(1+[I]/Ki)+[S] where [S] is the substrate concentrations and [I] is the inhibitor concentration.

EcaGST A3-3 [2] = target: T3, EcaGST A3-3; assay: Inhibition of EcaGST A3-3 steroid double-bond isomerase activity with Δ^5-AD; type: biochemical, Equus ferus caballus
HsaGST A3-3 [3] = target: T1, HsaGST A3-3; assay: Inhibition of HsaGST A3-3 CDNB activity; type: biochemical; conditions: for Inhibition (%) of HsaGST A3-3: 10 μM inhibitor
Protocol: (§2) EcaGST A3-3 [10], HsaGST A3-3 [12] and HsaGST M2-2 [13] were cloned, expressed and purified as described previously. Protein concentration was determined by means of the Bradford assay.
as §1
(§3) For understanding the effects of pharmacological interventions based on GST inhibitors, it is important to know the selectivity among the numerous GSTs. […] All values were determined with CDNB, which is a common substrate for all the enzymes.

HsaGST M2-2 = target: T2, HsaGST M2-2; assay: Inhibition of HsaGST M2-2 CDNB activity; type: biochemical
Protocol: as §2, §1, §3

HsaGST A3-3 [4] = target: T1, HsaGST A3-3; set-up: method as in PMID 23769903; conditions: CDNB activity, 1 mM GSH, 1 mM CDNB, pH 6.5, 30°C; read-out: IC50 HsaGST A3-3 (published); cited from earlier work
HsaGST P1-1 = tested on: HsaGST P1-1; set-up: method as in PMID 23769903; conditions: 1 mM GSH, 1 mM CDNB, pH 6.5, 30°C, cited from earlier work; for Inhibition (%) of HsaGST P1-1: 3.3 μM inhibitor; for IC50: CDNB activity
HsaGST S1-1 = tested on: HsaGST S1-1; set-up: method as in PMID 25603235; conditions: 1 mM GSH, 1 mM CDNB, pH 6.5, 30°C, cited from earlier work; for Inhibition (%) of HsaGST S1-1: 10 μM inhibitor; for IC50: CDNB activity
[5] = substrate: CC12CCC3C(CC=C4CC(=O)CCC43C)C1CCC2=O; assay: purified protein, by the assay type; conditions: other: 1 mM GSH, fitted with and without anthralin; 30.0 °C
[6] = 1 mM CDNB, 1 mM GSH, 100 mM sodium phosphate pH 6.5, 30°C, read-out: IC50 EcaGST A3-3, substrate CDNB
[7] = pH 6.5, 10 μM inhibitor, 1 mM GSH, 1 mM CDNB, pH 6.5, 30°C, read-out: Inhibition (%) of HsaGST A3-3
[8] = 10 μM inhibitor, 1 mM GSH, 1 mM CDNB, pH 6.5, 30°C, read-out: Inhibition (%) of HsaGST M2-2
[9] = 0.1 mM Δ^5-AD, 1 mM GSH, 25 mM sodium phosphate pH 8.0, 30°C
[10] = 1 mM GSH, 1 mM CDNB, pH 6.5, 30°C
[11] = 10 μM inhibitor, 1 mM GSH, 1 mM CDNB, pH 6.5, 30°C

| Molecule | Inhibition (%) of EcaGST A3-3 (EcaGST A3-3 [1]; 1 mM GSH, 1 mM CDNB) | IC50 (EcaGST A3-3 [1]; [6]) | IC50 (EcaGST A3-3 [2]) | inhibition at 10 µM (HsaGST A3-3 [3]; [7]) | inhibition at 10 µM (HsaGST M2-2; [8]) | IC50 (HsaGST A3-3 [4]) | Inhibition (%) of HsaGST P1-1 (HsaGST P1-1) | Inhibition (%) of HsaGST S1-1 (HsaGST S1-1) | IC50 (HsaGST S1-1) | IC50 (EcaGST A3-3 [1]) | inhibition at 10 µM (EcaGST A3-3 [1]) | IC50 EcaGST A3-3, substrate Δ^5-AD (EcaGST A3-3 [2]; [9]) | Inhibition (%) of HsaGST A3-3 (HsaGST A3-3 [3]; [10]) | Inhibition (%) of HsaGST M2-2 (HsaGST M2-2; [11]) | IC50 (HsaGST P1-1) | other results |
| --- | --- | --- | --- | --- | --- | --- | --- | --- | --- | --- | --- | --- | --- | --- | --- | --- |
| Oc1c(Cl)cc(Cl)cc1Sc1cc(Cl)cc(Cl)c1O [Bithionate sodium] | 64 ± 22% | 1.9 ± 0.52 µM | 1.6 ± 0.31 µM | 47% | 73% | 0.7 µM | 10% | 47% | 12 µM |  |  |  |  |  |  |  |
| C=C(CC)C(=O)c1ccc(OCC(=O)O)c(Cl)c1Cl [Ethacrynic acid] | 100% |  | 0.25 ± 0.1 µM | 94 to 100% | 0% | 0.4 µM | 25% | 32% | 44 µM | 0.18 ± 0.067 µM | 94 to 100% | submicromolar range | 94% | low or negligible effects | 4.9 µM | Inhibition modality, substrate CDNB (EcaGST A3-3 [1]; CDNB varied, 1 mM GSH): Competitive; Ki (EcaGST A3-3 [1]; Ki, EcaGST A3-3, substrate CDNB, CDNB varied, 1 mM GSH, 0.25 μM inhibitor): 0.14 µM and 0.141 µM; Hill coefficient, CDNB inhibition (EcaGST A3-3 [1]; dose-response curve, substrate CDNB, mean ± SD): 2.5±0.21; Hill coefficient, Δ^5-AD inhibition (EcaGST A3-3 [2]; dose-response curve, substrate Δ^5-AD, mean ± SD): 1.0; Inhibition (%) of HsaGST P1-1 (HsaGST P1-1; listed as ethacrynic acid): low or negligible effects; Inhibition (%) of HsaGST S1-1 (HsaGST S1-1; listed as ethacrynic acid): low or negligible effects |
| Oc1c(Cl)cc(Cl)c(Cl)c1Cc1c(O)c(Cl)cc(Cl)c1Cl [Hexachlorophene] |  |  | 0.44 ± 0.22 µM |  |  | 0.16 µM | 34% | 61% | 8.9 µM | 0.32 ± 0.036 µM | 96 ± 1.1% |  |  |  | 9.7 µM | inhibition at 10 µM (HsaGST A3-3 [3]; pH 6.5, read-out: Inhibition (%) of HsaGST A3-3): 89%; IC50 (HsaGST M2-2): 1.5 µM; inhibition at 10 µM (HsaGST M2-2; pH 6.5, read-out: Inhibition (%) of HsaGST M2-2): 98% |
| O=C([O-])c1ccccc1-c1c2cc(Br)c(=O)cc-2oc2[c]([Hg+])c([O-])c(Br)cc12.[Na+].[Na+].[OH-] [Merbromin] | 95 ± 18% | 2.6 ± 0.63 µM |  |  |  | 0.66 µM | 44% | 85% | 3.3 µM |  |  |  | 98% | 85% | 3.1 µM | IC50 (EcaGST A3-3 [2]; read-out: IC50 EcaGST A3-3, substrate Δ^5-AD, 0.1 mM Δ^5-AD, 1 mM GSH, 25 mM sodium phosphate pH 8.0, 30°C): 2.5 ± 0.48 µM; IC50 (HsaGST M2-2; CDNB activity, 1 mM GSH, 1 mM CDNB, pH 6.5, 30°C, read-out: IC50 HsaGST M2-2): 4.9 µM |
| Chlorophyllide Cu-complex Na salt | 98 ±2.2% | 2.1 ± 0.27 µM |  |  |  | 0.33 µM | 51% | 100% | 1.7 µM |  |  | Anomalous curve | 84% | 100% | 2.3 µM |  |
| EcaGST A3-3 (Equus caballus) (protein) MAVKPMLHYFNGRGRMEPIRWLLAAAGVEFEETFIDTPEDFEKLKNDGSLMFQQVPMVEIDGMKLVQSRAILNYVAAKHNLYGKDIKERALIDMYIEGVADLNEMILLLPITPPAEKDAKIMLIKDRTTNRYLPAFEKVLKSHGEDYLVGNRLSRADIHLVELLYLVEELDPSLLTNFPLLKALKARISNLPTVKKFLQPGGARKPPGDEKSVEKSRKIFKF |  |  |  |  |  |  |  |  |  |  |  |  |  |  |  | Km [5]: 10.8 ± 0.46 µM |
